ChEMBL document CHEMBL5696439 (Cancer Res, 2010)
Activity calls are given as the source filed them. The calls are words filed in the database; no cut-off is given here.

Tests used:
[1] = target: Tyrosine-protein kinase receptor UFO (Homo sapiens) (UniProt P30530); assay: Inhibition of recombinant human His-tagged AXL (473 to end residues) expressed in insect cells at 2 uM using Tyr 06 as substrate measured after 1 hr by Z'-LYTE assay relative to control; conditions: Insect cell
[2] = target: Cyclin-dependent kinase 1/cyclin B1 (Homo sapiens) (UniProt P06493+P14635); assay: Inhibition of recombinant human full-length His-tagged CDK1/cyclin B expressed in insect cells at 2 uM using Ser/Thr 18 as substrate measured after 1 hr by Z'-LYTE assay relative to control; conditions: Insect cell
[3] = target: Ephrin type-B receptor 4 (Homo sapiens) (UniProt P54760); assay: Inhibition of recombinant human His-tagged EPHB4 (561-987 residues) expressed in baculovirus expression system at 2 uM using Tyr 01 as substrate measured after 1 hr by Z'-LYTE assay relative to control
[4] = target: Receptor tyrosine-protein kinase erbB-4 (Homo sapiens) (UniProt Q15303); assay: Inhibition of recombinant human GST-tagged ERBB4 (708-993 residues) expressed in insect cells at 2 uM using Tyr 01 as substrate measured after 1 hr by Z'-LYTE assay relative to control; conditions: Insect cell
[5] = target: G protein-coupled receptor kinase 5 (Homo sapiens) (UniProt P34947); assay: Inhibition of recombinant human full-length GST-tagged GRK5 expressed in insect cells at 2 uM using Ser/Thr 16 as substrate measured after 1 hr by Z'-LYTE assay relative to control; conditions: Insect cell
[6] = target: Mast/stem cell growth factor receptor Kit (Homo sapiens) (UniProt P10721); assay: Inhibition of recombinant human His-tagged KIT (544-976 residues) expressed in insect cells at 2 uM using […] as substrate measured after 1 hr by Z'-LYTE assay relative to control
[7] = target: Mitogen-activated protein kinase kinase kinase 8 (Homo sapiens) (UniProt P41279); assay: Inhibition of recombinant human GST-tagged MAP3K8 (30-397 residues) expressed in insect cells at 2 uM using Ser/Thr 03 as substrate measured after 1 hr by Z'-LYTE assay relative to control; conditions: Insect cell
[8] = target: Mitogen-activated protein kinase 12 (Homo sapiens) (UniProt P53778); assay: Inhibition of recombinant human full length His-tagged MAPK12 expressed in baculovirus expression system at 2 uM using Ser/Thr 03 as substrate measured after 1 hr by Z'-LYTE assay relative to control
[9] = target: Mitogen-activated protein kinase 3 (Homo sapiens) (UniProt P27361); assay: Inhibition of recombinant human full length GST-tagged MAPK3 expressed in E. coli at 2 uM using Ser/Thr 03 as substrate measured after 1 hr by Z'-LYTE assay relative to control
[10] = target: Mitogen-activated protein kinase 8 (Homo sapiens) (UniProt P45983); assay: Inhibition of recombinant human full length His-tagged MAPK8 expressed in insect cells at 2 uM using Ser/Thr 04 as substrate measured after 1 hr by Z'-LYTE assay relative to control; conditions: Insect cell
[11] = target: Serine/threonine-protein kinase Nek6 (Homo sapiens) (UniProt Q9HC98); assay: Inhibition of recombinant human full length GST-tagged NEK6 expressed in insect cells at 2 uM using Ser/Thr 22 as substrate measured after 1 hr by Z'-LYTE assay relative to control; conditions: Insect cell
[12] = target: Phosphorylase b kinase gamma catalytic chain, skeletal muscle/heart isoform (Homo sapiens) (UniProt Q16816); assay: Inhibition of recombinant human full length GST-tagged PHKG1 expressed in insect cells at 2 uM using Ser/Thr 07 as substrate measured after 1 hr by Z'-LYTE assay relative to control; conditions: Insect cell
[13] = target: Serine/threonine-protein kinase pim-2 (Homo sapiens) (UniProt Q9P1W9); assay: Inhibition of recombinant human full length GST-tagged PIM2 expressed in insect cells at 2 uM using Ser/Thr 07 as substrate measured after 1 hr by Z'-LYTE assay relative to control; conditions: Insect cell
[14] = target: Protein kinase C epsilon type (Homo sapiens) (UniProt Q02156); assay: Inhibition of recombinant human full length GST-tagged PRKCE expressed in insect cells at 2 uM using Ser/Thr 07 as substrate measured after 1 hr by Z'-LYTE assay relative to control; conditions: Insect cell
[15] = target: Protein kinase C eta type (Homo sapiens) (UniProt P24723); assay: Inhibition of recombinant human PRKCH at 2 uM using Ser/Thr 07 as substrate measured after 1 hr by Z'-LYTE assay relative to control
[16] = target: cAMP-dependent protein kinase catalytic subunit PRKX (Homo sapiens) (UniProt P51817); assay: Inhibition of recombinant human full length GST-tagged PRKX expressed in insect cells at 2 uM using Ser/Thr 01 as substrate measured after 1 hr by Z'-LYTE assay relative to control; conditions: Insect cell
[17] = target: Protein-tyrosine kinase 2-beta (Homo sapiens) (UniProt Q14289); assay: Inhibition of recombinant human full length GST-tagged PTK2B expressed in insect cells at 2 uM using Tyr 01 as substrate measured after 1 hr by Z'-LYTE assay relative to control; conditions: Insect cell
U-87 MG = assay: Antiproliferative activity against human U-87MG cells assessed as cell growth inhibition incubated for 24 hrs by MTS assay; assay type: functional, cell-based, U-87MG ATCC
A549 [18] = assay: Antiproliferative activity against human A549 cells assessed as cell growth inhibition at 10 micromol/L incubated for 3 days by MTS assay relative to control; assay type: functional; conditions: A549, 72 h, dose 10 µmol/L, time 3 day
A549 [19] = assay: Induction of apoptosis in human A549 cells assessed as increase in G1 phase at 1 micromol/L incubated for 24 hrs by FACS analysis; assay type: functional, cell-based; conditions: dose 1.0 µmol/L
MDA-MB-361 [20] = assay: Induction of apoptosis in human MDA-MB-361 cells assessed as induction in cell death at 30 nmol/L incubated for 48 hrs by FACS analysis relative to control; assay type: functional
HEK293 = assay: Antiproliferative activity against HEK293 cells assessed as reduction in polysomes at 0.5 micromol/L incubated for 16 hrs; assay type: functional, Homo sapiens; conditions: dose 0.5 µmol/L
HCT-116 = assay: Antitumor activity against human HCT-116 cells xenografted in female nude mouse model assessed as suppression in P-S6K at T389 level at 50 mg/kg, iv administered once a week and measured at least 8 hrs by immunoblot analysis; assay type: functional, organism-based
MDA-MB-361 [21] = assay: Antitumor activity against human MDA-MB-361 cells xenografted in female nude mouse model assessed as induction in PARP cleavage at 50 mg/kg, po qd administered as 5 days on/2 days off regimen for 4 cycles by immunoblot analysis; assay type: functional, organism-based; conditions: time 28.0 day
mTORC2 (Homo sapiens) [22] = target: T1, mTORC2 (Homo sapiens) (UniProt P42345+Q6R327+Q9BVC4+Q9BPZ7); conditions: U-87 MG, dose 0.025-2 µmol/L, time 6.0 hrs
mTORC2 (Homo sapiens) [23] = target: T1, mTORC2 (Homo sapiens); conditions: PC3MM2, dose 0.1-1 µM, time 6.0 hrs
A498 = assay: cells; conditions: Homo sapiens, A498, 48 h
Description: Antiproliferative activity against human A498 cells assessed as cell growth inhibition incubated for 2 days by MTS assay

Chain of Tyrosine-protein kinase receptor UFO (Homo sapiens) (P30530 whole entry): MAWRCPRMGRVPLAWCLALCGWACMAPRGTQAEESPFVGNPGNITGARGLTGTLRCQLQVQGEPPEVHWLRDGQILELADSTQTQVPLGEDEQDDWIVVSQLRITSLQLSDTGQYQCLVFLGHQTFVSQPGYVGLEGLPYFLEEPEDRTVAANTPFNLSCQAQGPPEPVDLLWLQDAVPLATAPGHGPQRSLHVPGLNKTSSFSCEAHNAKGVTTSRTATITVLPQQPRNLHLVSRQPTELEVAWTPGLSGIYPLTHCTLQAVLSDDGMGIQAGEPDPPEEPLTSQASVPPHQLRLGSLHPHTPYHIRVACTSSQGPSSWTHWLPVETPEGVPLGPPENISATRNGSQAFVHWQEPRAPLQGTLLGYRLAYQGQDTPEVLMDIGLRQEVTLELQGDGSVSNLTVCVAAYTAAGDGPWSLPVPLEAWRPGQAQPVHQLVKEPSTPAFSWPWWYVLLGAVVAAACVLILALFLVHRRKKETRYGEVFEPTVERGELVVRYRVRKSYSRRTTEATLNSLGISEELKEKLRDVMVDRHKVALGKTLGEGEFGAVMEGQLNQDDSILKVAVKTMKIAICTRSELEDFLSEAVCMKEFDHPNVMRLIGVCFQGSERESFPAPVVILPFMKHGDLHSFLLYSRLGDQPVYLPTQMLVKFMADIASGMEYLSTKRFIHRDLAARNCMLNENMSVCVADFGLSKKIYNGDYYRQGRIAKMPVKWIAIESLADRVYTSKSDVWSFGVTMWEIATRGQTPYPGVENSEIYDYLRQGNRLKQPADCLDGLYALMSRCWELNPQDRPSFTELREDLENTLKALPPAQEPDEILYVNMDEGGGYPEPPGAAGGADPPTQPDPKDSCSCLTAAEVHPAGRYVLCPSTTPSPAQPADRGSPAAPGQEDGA
Chain of Protein kinase C epsilon type (Homo sapiens) (Q02156 whole entry): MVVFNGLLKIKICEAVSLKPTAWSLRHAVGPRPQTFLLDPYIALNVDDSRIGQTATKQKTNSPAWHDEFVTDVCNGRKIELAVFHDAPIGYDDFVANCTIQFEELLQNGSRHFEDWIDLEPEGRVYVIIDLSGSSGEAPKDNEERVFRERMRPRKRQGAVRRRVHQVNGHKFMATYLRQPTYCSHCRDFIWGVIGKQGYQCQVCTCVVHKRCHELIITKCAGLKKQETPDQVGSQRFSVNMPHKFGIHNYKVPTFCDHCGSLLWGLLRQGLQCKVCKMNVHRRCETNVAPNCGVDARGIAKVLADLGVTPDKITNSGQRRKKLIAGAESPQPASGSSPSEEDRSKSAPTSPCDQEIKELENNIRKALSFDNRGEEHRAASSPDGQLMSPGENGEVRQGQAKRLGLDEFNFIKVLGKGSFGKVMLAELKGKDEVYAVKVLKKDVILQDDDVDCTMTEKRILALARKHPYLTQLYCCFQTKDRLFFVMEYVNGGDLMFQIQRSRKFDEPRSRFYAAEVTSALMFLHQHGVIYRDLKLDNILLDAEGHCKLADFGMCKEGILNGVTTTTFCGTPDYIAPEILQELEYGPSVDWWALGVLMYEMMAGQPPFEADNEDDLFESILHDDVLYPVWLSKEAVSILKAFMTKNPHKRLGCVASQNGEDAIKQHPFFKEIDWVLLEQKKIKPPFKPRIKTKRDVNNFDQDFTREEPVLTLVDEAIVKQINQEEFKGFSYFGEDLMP
Chain of Mitogen-activated protein kinase kinase kinase 8 (Homo sapiens) (P41279 whole entry, the tested form may be a part): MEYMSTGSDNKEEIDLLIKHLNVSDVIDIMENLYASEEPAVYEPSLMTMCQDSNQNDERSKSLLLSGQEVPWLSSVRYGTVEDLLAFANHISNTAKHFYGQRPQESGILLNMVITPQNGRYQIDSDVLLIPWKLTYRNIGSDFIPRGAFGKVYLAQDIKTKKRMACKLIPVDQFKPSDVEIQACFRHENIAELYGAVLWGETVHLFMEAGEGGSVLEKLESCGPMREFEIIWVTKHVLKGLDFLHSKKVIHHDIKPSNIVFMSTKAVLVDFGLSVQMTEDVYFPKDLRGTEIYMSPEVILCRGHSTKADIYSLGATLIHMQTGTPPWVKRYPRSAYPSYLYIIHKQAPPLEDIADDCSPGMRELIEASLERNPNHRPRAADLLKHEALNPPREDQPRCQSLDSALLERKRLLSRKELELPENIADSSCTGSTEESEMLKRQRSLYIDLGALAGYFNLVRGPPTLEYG
Chain of G protein-coupled receptor kinase 5 (Homo sapiens) (P34947 whole entry, looked up, the tested form may be a part): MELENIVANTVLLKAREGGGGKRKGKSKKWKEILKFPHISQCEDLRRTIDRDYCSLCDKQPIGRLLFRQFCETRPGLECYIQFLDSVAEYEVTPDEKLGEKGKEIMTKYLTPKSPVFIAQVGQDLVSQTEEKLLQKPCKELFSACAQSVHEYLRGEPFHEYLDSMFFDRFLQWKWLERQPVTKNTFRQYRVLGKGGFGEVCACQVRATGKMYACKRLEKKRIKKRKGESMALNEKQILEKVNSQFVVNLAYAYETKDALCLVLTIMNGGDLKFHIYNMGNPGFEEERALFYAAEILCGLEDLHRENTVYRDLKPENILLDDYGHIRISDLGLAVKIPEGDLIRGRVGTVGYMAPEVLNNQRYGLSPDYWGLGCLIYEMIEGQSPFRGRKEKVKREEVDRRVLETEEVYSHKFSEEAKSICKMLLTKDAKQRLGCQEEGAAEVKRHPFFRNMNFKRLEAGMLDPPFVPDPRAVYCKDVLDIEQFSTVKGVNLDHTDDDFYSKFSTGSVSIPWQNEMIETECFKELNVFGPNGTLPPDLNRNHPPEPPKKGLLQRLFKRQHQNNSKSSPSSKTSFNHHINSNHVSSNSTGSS
Chain of Ephrin type-B receptor 4 (Homo sapiens) (P54760 whole entry, the tested form may be a part): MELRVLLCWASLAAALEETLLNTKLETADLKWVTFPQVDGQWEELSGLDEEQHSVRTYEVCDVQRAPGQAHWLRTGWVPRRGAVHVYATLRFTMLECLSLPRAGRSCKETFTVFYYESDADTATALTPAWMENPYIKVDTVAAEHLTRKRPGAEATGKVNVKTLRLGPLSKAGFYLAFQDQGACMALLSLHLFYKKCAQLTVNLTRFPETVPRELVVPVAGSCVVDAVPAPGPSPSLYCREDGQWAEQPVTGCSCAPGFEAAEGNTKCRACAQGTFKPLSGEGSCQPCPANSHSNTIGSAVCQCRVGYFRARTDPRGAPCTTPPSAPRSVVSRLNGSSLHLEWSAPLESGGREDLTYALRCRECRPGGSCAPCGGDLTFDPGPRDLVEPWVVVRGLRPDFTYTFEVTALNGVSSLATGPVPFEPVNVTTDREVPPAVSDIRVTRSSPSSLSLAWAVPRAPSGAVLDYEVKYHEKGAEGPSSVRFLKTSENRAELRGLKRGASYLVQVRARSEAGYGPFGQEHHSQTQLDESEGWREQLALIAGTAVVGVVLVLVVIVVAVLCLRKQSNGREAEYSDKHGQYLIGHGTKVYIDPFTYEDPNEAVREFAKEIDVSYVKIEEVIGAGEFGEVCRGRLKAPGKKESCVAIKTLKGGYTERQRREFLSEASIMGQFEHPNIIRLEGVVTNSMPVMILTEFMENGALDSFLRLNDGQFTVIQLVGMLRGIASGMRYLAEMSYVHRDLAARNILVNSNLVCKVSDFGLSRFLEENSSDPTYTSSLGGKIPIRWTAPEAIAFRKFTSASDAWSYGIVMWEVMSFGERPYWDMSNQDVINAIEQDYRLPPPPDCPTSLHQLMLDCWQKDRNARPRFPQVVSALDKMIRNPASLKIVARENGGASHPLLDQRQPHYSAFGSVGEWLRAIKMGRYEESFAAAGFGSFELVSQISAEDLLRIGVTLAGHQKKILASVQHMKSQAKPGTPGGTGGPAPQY
Chain of Protein kinase C eta type (Homo sapiens) (P24723 whole entry): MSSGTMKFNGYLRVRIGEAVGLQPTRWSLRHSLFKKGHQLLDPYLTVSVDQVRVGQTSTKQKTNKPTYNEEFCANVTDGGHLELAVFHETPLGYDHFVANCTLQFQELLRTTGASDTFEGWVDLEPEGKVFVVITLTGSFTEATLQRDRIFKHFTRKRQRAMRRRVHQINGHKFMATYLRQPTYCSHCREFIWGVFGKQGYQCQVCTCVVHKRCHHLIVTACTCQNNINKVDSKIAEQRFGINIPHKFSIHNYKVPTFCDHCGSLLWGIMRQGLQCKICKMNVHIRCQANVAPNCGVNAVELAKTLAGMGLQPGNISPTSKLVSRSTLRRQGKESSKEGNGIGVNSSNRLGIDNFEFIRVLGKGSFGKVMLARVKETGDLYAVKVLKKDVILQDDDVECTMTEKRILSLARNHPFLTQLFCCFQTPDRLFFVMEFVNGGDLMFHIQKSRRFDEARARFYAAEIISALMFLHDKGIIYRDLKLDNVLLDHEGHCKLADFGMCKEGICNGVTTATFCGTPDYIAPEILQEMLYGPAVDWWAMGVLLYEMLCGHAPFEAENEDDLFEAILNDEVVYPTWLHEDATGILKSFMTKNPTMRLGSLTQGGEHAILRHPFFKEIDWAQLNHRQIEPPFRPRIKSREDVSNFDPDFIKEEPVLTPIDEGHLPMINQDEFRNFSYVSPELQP
Chain of Serine/threonine-protein kinase Nek6 (Homo sapiens) (Q9HC98 whole entry, canonical isoform): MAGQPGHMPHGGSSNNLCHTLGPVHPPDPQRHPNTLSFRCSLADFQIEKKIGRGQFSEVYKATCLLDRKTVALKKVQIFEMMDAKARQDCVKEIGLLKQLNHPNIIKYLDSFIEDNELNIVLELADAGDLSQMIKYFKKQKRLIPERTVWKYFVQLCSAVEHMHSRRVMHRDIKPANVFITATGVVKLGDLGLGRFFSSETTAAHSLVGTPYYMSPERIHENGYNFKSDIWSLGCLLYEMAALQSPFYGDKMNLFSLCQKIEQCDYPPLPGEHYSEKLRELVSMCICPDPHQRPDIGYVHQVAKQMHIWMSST
Chain of cAMP-dependent protein kinase catalytic subunit PRKX (Homo sapiens) (P51817 whole entry): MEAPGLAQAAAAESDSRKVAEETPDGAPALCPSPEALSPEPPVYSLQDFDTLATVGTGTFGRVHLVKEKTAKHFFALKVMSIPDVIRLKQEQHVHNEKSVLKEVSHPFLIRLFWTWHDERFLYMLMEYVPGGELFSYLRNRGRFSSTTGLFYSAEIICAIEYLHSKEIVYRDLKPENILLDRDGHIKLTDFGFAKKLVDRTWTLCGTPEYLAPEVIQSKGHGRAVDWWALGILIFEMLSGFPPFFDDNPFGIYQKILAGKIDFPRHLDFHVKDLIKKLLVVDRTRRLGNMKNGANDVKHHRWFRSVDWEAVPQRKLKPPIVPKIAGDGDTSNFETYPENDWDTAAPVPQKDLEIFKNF

## CNC(=O)Nc1ccc(-c2nc(N3CC4CCC(C3)O4)c3cnn(C4CCC5(CC4)OCCO5)c3n2)cc1
[1]
  inhibition: 2%
[2]
  inhibition: 6%
[3]
  inhibition: -4%
[4]
  inhibition: 3%
[5]
  inhibition: -4%
[6]
  inhibition: 10%
[7]
  inhibition: 1%
[8]
  inhibition: -2%
[9]
  inhibition: 1%
[10]
  inhibition: 12%
[11]
  inhibition: 12%
[12]
  inhibition: 7%
[13]
  inhibition: 3%
[14]
  inhibition: 15%
[15]
  inhibition: 14%
[16]
  inhibition: 5%
[17]
  inhibition: -3%
U-87 MG
  IC50: 65 nM
A549 [18]
  inhibition at 10 µM: 100%
A549 [19]
  Activity: Active
MDA-MB-361 [20]
  Activity: 13%
HEK293
  Activity: 0.58
HCT-116
  Activity: Active
MDA-MB-361 [21]
  Activity: Active
mTORC2 (Homo sapiens) [22]
  inhibition: Active
mTORC2 (Homo sapiens) [23]
  inhibition: inactive
A498
  IC50: 2500 nM
